Laboratory results as given in the NIST ThermoML archive (doi:10.1016/j.jct.2009.06.011).
± gives the expanded uncertainty stated by the source.

Assay: activity coefficient (dimensionless); of the first substance listed, at infinite dilution; xn = mol fraction of the nth substance listed
Conditions: 298.15 K; 101 kPa; Liquid; Chromatography; x1 = 0

Row | Structure (SMILES) | activity coefficient
1 | C=CCCCCCC [oct-1-ene] + CCCC[n+]1ccc(C)cc1.O=S(=O)([N-]S(=O)(=O)C(F)(F)F)C(F)(F)F | 13.8 ± 0.9
2 | CCCCCCCC [octane] + CCCC[n+]1ccc(C)cc1.O=S(=O)([N-]S(=O)(=O)C(F)(F)F)C(F)(F)F | 27.9 ± 1.9
3 | CCCCC [pentane] + CCCC[n+]1ccc(C)cc1.O=S(=O)([N-]S(=O)(=O)C(F)(F)F)C(F)(F)F | 12.9 ± 0.9
4 | CCCO [propan-1-ol] + CCCC[n+]1ccc(C)cc1.O=S(=O)([N-]S(=O)(=O)C(F)(F)F)C(F)(F)F | 2.28 ± 0.16
5 | C1CCOC1 [tetrahydrofuran] + CCCC[n+]1ccc(C)cc1.O=S(=O)([N-]S(=O)(=O)C(F)(F)F)C(F)(F)F | 0.617 ± 0.043
6 | c1ccsc1 [thiophene] + CCCC[n+]1ccc(C)cc1.O=S(=O)([N-]S(=O)(=O)C(F)(F)F)C(F)(F)F | 0.609 ± 0.043
7 | O [water] + CCCC[n+]1ccc(C)cc1.O=S(=O)([N-]S(=O)(=O)C(F)(F)F)C(F)(F)F | 4.86 ± 0.33

Same assay, conditions: 308.15 K; 101 kPa; Liquid; Chromatography; x1 = 0

Row | Structure (SMILES) | activity coefficient
8 | C=CCCCCCC [oct-1-ene] + CCCC[n+]1ccc(C)cc1.O=S(=O)([N-]S(=O)(=O)C(F)(F)F)C(F)(F)F | 13 ± 0.9
9 | CCCCCCCC [octane] + CCCC[n+]1ccc(C)cc1.O=S(=O)([N-]S(=O)(=O)C(F)(F)F)C(F)(F)F | 25.8 ± 1.8
10 | CCCCC [pentane] + CCCC[n+]1ccc(C)cc1.O=S(=O)([N-]S(=O)(=O)C(F)(F)F)C(F)(F)F | 12 ± 0.8
11 | CCCO [propan-1-ol] + CCCC[n+]1ccc(C)cc1.O=S(=O)([N-]S(=O)(=O)C(F)(F)F)C(F)(F)F | 2.04 ± 0.14
12 | C1CCOC1 [tetrahydrofuran] + CCCC[n+]1ccc(C)cc1.O=S(=O)([N-]S(=O)(=O)C(F)(F)F)C(F)(F)F | 0.63 ± 0.044
13 | c1ccsc1 [thiophene] + CCCC[n+]1ccc(C)cc1.O=S(=O)([N-]S(=O)(=O)C(F)(F)F)C(F)(F)F | 0.624 ± 0.043
14 | O [water] + CCCC[n+]1ccc(C)cc1.O=S(=O)([N-]S(=O)(=O)C(F)(F)F)C(F)(F)F | 4.2 ± 0.29

Same assay, conditions: 318.15 K; 101 kPa; Liquid; Chromatography; x1 = 0

Row | Structure (SMILES) | activity coefficient
15 | C=CCCCCCC [oct-1-ene] + CCCC[n+]1ccc(C)cc1.O=S(=O)([N-]S(=O)(=O)C(F)(F)F)C(F)(F)F | 12.4 ± 0.8
16 | CCCCCCCC [octane] + CCCC[n+]1ccc(C)cc1.O=S(=O)([N-]S(=O)(=O)C(F)(F)F)C(F)(F)F | 23.7 ± 1.6
17 | CCCCC [pentane] + CCCC[n+]1ccc(C)cc1.O=S(=O)([N-]S(=O)(=O)C(F)(F)F)C(F)(F)F | 11.2 ± 0.8
18 | CCCO [propan-1-ol] + CCCC[n+]1ccc(C)cc1.O=S(=O)([N-]S(=O)(=O)C(F)(F)F)C(F)(F)F | 1.84 ± 0.12
19 | C1CCOC1 [tetrahydrofuran] + CCCC[n+]1ccc(C)cc1.O=S(=O)([N-]S(=O)(=O)C(F)(F)F)C(F)(F)F | 0.641 ± 0.044
20 | c1ccsc1 [thiophene] + CCCC[n+]1ccc(C)cc1.O=S(=O)([N-]S(=O)(=O)C(F)(F)F)C(F)(F)F | 0.637 ± 0.044
21 | Cc1ccccc1 [toluene] + CCCC[n+]1ccc(C)cc1.O=S(=O)([N-]S(=O)(=O)C(F)(F)F)C(F)(F)F | 0.973 ± 0.061
22 | O [water] + CCCC[n+]1ccc(C)cc1.O=S(=O)([N-]S(=O)(=O)C(F)(F)F)C(F)(F)F | 3.65 ± 0.25

Same assay, conditions: 328.15 K; 101 kPa; Liquid; Chromatography; x1 = 0

Row | Structure (SMILES) | activity coefficient
23 | C=CCCCCCC [oct-1-ene] + CCCC[n+]1ccc(C)cc1.O=S(=O)([N-]S(=O)(=O)C(F)(F)F)C(F)(F)F | 11.8 ± 0.8
24 | CCCCCCCC [octane] + CCCC[n+]1ccc(C)cc1.O=S(=O)([N-]S(=O)(=O)C(F)(F)F)C(F)(F)F | 22.1 ± 1.5
25 | CCCCC [pentane] + CCCC[n+]1ccc(C)cc1.O=S(=O)([N-]S(=O)(=O)C(F)(F)F)C(F)(F)F | 10.5 ± 0.7
26 | CCCO [propan-1-ol] + CCCC[n+]1ccc(C)cc1.O=S(=O)([N-]S(=O)(=O)C(F)(F)F)C(F)(F)F | 1.67 ± 0.11
27 | C1CCOC1 [tetrahydrofuran] + CCCC[n+]1ccc(C)cc1.O=S(=O)([N-]S(=O)(=O)C(F)(F)F)C(F)(F)F | 0.653 ± 0.045
28 | c1ccsc1 [thiophene] + CCCC[n+]1ccc(C)cc1.O=S(=O)([N-]S(=O)(=O)C(F)(F)F)C(F)(F)F | 0.649 ± 0.044
29 | Cc1ccccc1 [toluene] + CCCC[n+]1ccc(C)cc1.O=S(=O)([N-]S(=O)(=O)C(F)(F)F)C(F)(F)F | 1 ± 0.063
30 | O [water] + CCCC[n+]1ccc(C)cc1.O=S(=O)([N-]S(=O)(=O)C(F)(F)F)C(F)(F)F | 3.21 ± 0.22

Same assay, conditions: 338.15 K; 101 kPa; Liquid; Chromatography; x1 = 0

Row | Structure (SMILES) | activity coefficient
31 | C=CCCCCCC [oct-1-ene] + CCCC[n+]1ccc(C)cc1.O=S(=O)([N-]S(=O)(=O)C(F)(F)F)C(F)(F)F | 11.3 ± 0.8
32 | CCCCCCCC [octane] + CCCC[n+]1ccc(C)cc1.O=S(=O)([N-]S(=O)(=O)C(F)(F)F)C(F)(F)F | 20.7 ± 1.4
33 | CCCCC [pentane] + CCCC[n+]1ccc(C)cc1.O=S(=O)([N-]S(=O)(=O)C(F)(F)F)C(F)(F)F | 9.89 ± 0.67
34 | CCCO [propan-1-ol] + CCCC[n+]1ccc(C)cc1.O=S(=O)([N-]S(=O)(=O)C(F)(F)F)C(F)(F)F | 1.53 ± 0.1
35 | C1CCOC1 [tetrahydrofuran] + CCCC[n+]1ccc(C)cc1.O=S(=O)([N-]S(=O)(=O)C(F)(F)F)C(F)(F)F | 0.663 ± 0.045
36 | c1ccsc1 [thiophene] + CCCC[n+]1ccc(C)cc1.O=S(=O)([N-]S(=O)(=O)C(F)(F)F)C(F)(F)F | 0.661 ± 0.045
37 | Cc1ccccc1 [toluene] + CCCC[n+]1ccc(C)cc1.O=S(=O)([N-]S(=O)(=O)C(F)(F)F)C(F)(F)F | 1.02 ± 0.064
38 | O [water] + CCCC[n+]1ccc(C)cc1.O=S(=O)([N-]S(=O)(=O)C(F)(F)F)C(F)(F)F | 2.85 ± 0.19

Same assay, conditions: 348.15 K; 101 kPa; Liquid; Chromatography; x1 = 0

Row | Structure (SMILES) | activity coefficient
39 | C=CCCCCCC [oct-1-ene] + CCCC[n+]1ccc(C)cc1.O=S(=O)([N-]S(=O)(=O)C(F)(F)F)C(F)(F)F | 10.9 ± 0.7
40 | CCCCCCCC [octane] + CCCC[n+]1ccc(C)cc1.O=S(=O)([N-]S(=O)(=O)C(F)(F)F)C(F)(F)F | 19.3 ± 1.3
41 | CCCCC [pentane] + CCCC[n+]1ccc(C)cc1.O=S(=O)([N-]S(=O)(=O)C(F)(F)F)C(F)(F)F | 9.37 ± 0.64
42 | CCCO [propan-1-ol] + CCCC[n+]1ccc(C)cc1.O=S(=O)([N-]S(=O)(=O)C(F)(F)F)C(F)(F)F | 1.41 ± 0.09
43 | C1CCOC1 [tetrahydrofuran] + CCCC[n+]1ccc(C)cc1.O=S(=O)([N-]S(=O)(=O)C(F)(F)F)C(F)(F)F | 0.673 ± 0.046
44 | c1ccsc1 [thiophene] + CCCC[n+]1ccc(C)cc1.O=S(=O)([N-]S(=O)(=O)C(F)(F)F)C(F)(F)F | 0.672 ± 0.046
45 | Cc1ccccc1 [toluene] + CCCC[n+]1ccc(C)cc1.O=S(=O)([N-]S(=O)(=O)C(F)(F)F)C(F)(F)F | 1.05 ± 0.066
46 | O [water] + CCCC[n+]1ccc(C)cc1.O=S(=O)([N-]S(=O)(=O)C(F)(F)F)C(F)(F)F | 2.54 ± 0.17

Same assay, conditions: 358.15 K; 101 kPa; Liquid; Chromatography; x1 = 0

Row | Structure (SMILES) | activity coefficient
47 | C=CCCCCCC [oct-1-ene] + CCCC[n+]1ccc(C)cc1.O=S(=O)([N-]S(=O)(=O)C(F)(F)F)C(F)(F)F | 10.4 ± 0.7
48 | CCCCCCCC [octane] + CCCC[n+]1ccc(C)cc1.O=S(=O)([N-]S(=O)(=O)C(F)(F)F)C(F)(F)F | 18.1 ± 1.2
49 | CCCCC [pentane] + CCCC[n+]1ccc(C)cc1.O=S(=O)([N-]S(=O)(=O)C(F)(F)F)C(F)(F)F | 8.88 ± 0.61
50 | CCCO [propan-1-ol] + CCCC[n+]1ccc(C)cc1.O=S(=O)([N-]S(=O)(=O)C(F)(F)F)C(F)(F)F | 1.3 ± 0.08
51 | C1CCOC1 [tetrahydrofuran] + CCCC[n+]1ccc(C)cc1.O=S(=O)([N-]S(=O)(=O)C(F)(F)F)C(F)(F)F | 0.683 ± 0.046
52 | c1ccsc1 [thiophene] + CCCC[n+]1ccc(C)cc1.O=S(=O)([N-]S(=O)(=O)C(F)(F)F)C(F)(F)F | 0.683 ± 0.046
53 | Cc1ccccc1 [toluene] + CCCC[n+]1ccc(C)cc1.O=S(=O)([N-]S(=O)(=O)C(F)(F)F)C(F)(F)F | 1.07 ± 0.067
54 | O [water] + CCCC[n+]1ccc(C)cc1.O=S(=O)([N-]S(=O)(=O)C(F)(F)F)C(F)(F)F | 2.26 ± 0.15

Same assay, conditions: 368.15 K; 101 kPa; Liquid; Chromatography; x1 = 0

Row | Structure (SMILES) | activity coefficient
55 | C=CCCCCCC [oct-1-ene] + CCCC[n+]1ccc(C)cc1.O=S(=O)([N-]S(=O)(=O)C(F)(F)F)C(F)(F)F | 10.1 ± 0.7
56 | CCCCCCCC [octane] + CCCC[n+]1ccc(C)cc1.O=S(=O)([N-]S(=O)(=O)C(F)(F)F)C(F)(F)F | 17.2 ± 1.2
57 | CCCCC [pentane] + CCCC[n+]1ccc(C)cc1.O=S(=O)([N-]S(=O)(=O)C(F)(F)F)C(F)(F)F | 8.47 ± 0.58
58 | CCCO [propan-1-ol] + CCCC[n+]1ccc(C)cc1.O=S(=O)([N-]S(=O)(=O)C(F)(F)F)C(F)(F)F | 1.2 ± 0.08
59 | C1CCOC1 [tetrahydrofuran] + CCCC[n+]1ccc(C)cc1.O=S(=O)([N-]S(=O)(=O)C(F)(F)F)C(F)(F)F | 0.693 ± 0.047
60 | c1ccsc1 [thiophene] + CCCC[n+]1ccc(C)cc1.O=S(=O)([N-]S(=O)(=O)C(F)(F)F)C(F)(F)F | 0.694 ± 0.047
61 | Cc1ccccc1 [toluene] + CCCC[n+]1ccc(C)cc1.O=S(=O)([N-]S(=O)(=O)C(F)(F)F)C(F)(F)F | 1.09 ± 0.069
62 | O [water] + CCCC[n+]1ccc(C)cc1.O=S(=O)([N-]S(=O)(=O)C(F)(F)F)C(F)(F)F | 2.05 ± 0.14
